Laboratory results reported in patent US20150284353A1, “Sesquiterpene lactone-based pharmaceutical composition for treating gastrointestinal diseases” (CHO DANG PHARM. CO., LTD., priority 2012, published 2015).
“Also recorded” adds a separate entry of the source. Marks after values point to notes of the source that are not given here. One block for each compound: values may come before it.

Tests used:
[1] = test system: HCl-Ethanol inducing gastritis model; experiment: HCl-Ethanol inducing gastritis model; type: in vivo, white rats; conditions: for ED50: regression analysis, read-out: 50% effective dose (ED50); for Lesion inhibition rate: Table 2, ineffective compounds, dose not given
Experimental: After white rats have been fasted for 24 hours, CD-101, CD-102 and CD-103 compound have been orally administered according to method disclosed in Mizui et al., Jap. J. Pharmacol. 33: pp. 939-945 (1983). After 1 hour, 1.5 ml of 60% ethanol including 150 mM HCl has been orally administered to each animal. 1 hour later, animals have been sacrificed by cervical dislocation. After removing the stomach, the stomach has been fixed by injection of 13 ml of 2% formalin for 1 hour. After fixed stomach has been spread out, the lesion area has been measured using the photo by digital camera. Computer program Image J 1.38 (NIH, Bethesda, Md.) has been applied for measuring gastric lesion area (mm^2). The lesion inhibition rate has been calculated according to following equation. Further, 50% effective dose (ED50) has been also calculated using regression analysis.
Lesion inhibition rate(%)={gastric lesion area of control group(mm^2)−gastric lesion area of drug administration group(mm^2)}/gastric lesion area of control group(mm^2)×100

[2] = test system: indomethacin inducing stomach ulcer model; experiment: indomethacin inducing stomach ulcer model; type: in vivo, white rats; conditions: oral; for ED50: regression analysis, read-out: 50% effective dose (ED50)
Experimental: After white rats have been fasted for 24 hours, CD-101, CD-102 and CD-103 compound have been orally administered according to method disclosed in Yamasaki et al., Jap. J. Pharmacol. 49: pp. 441-448 (1989). After 1 hour, indomethacin (50 mg/kg) has been orally administered to each animal. After fasting for 5 hours, animals have been sacrificed by cervical dislocation. After removing the stomach, the stomach has been fixed by injection of 13 ml of 2% formalin for 1 hour. After fixed stomach has been spread out, the lesion area has been measured using the photo by digital camera. Computer program Image J 1.38 (NIH, Bethesda, Md.) has been applied for measuring gastric lesion area (mm^2). The lesion inhibition rate and 50% effective dose (ED50) have been calculated as the same manner of HCl-EtOH model.

[3] = test system: Chinese hamster lung (CHL) cell; experiment: Chromosomal aberration test; type: cell-based; conditions: for induction of chromosomal aberration: CHL cell
Source text: For measuring the induction of chromosomal aberration, the chromosomal aberration test has been carried out using Chinese hamster lung (CHL) cell. 2 kinds of methods have been adopted, such as, metabolic activation method (+S9) using metabolic activation system and direct method (−S9) without metabolic activation system.
For determining the test material reacting concentration, the cell growth inhibition test has been carried out. The test material has been dissolved and diluted in dimethyl sulfoxide (DMSO). Regardless of metabolic activation system, 12 concentration steps (2.43, 4.87, 9.75, 19.5, 39.1, 78.1, 156.3, 312.5, 625, 1250, 2500, 5000 μg/ml) of test material have been prepared. The cells have been cultured for 24 hours as the same way of main test. […] The medium has been further cultured for 18 hours.
Based upon the data of cell growth inhibition test, maximum concentration has been determined when the cell growth has been inhibited up to 50% as the relative cell numbers.
Regardless of metabolic activation system, the test materials have been prepared after 24 hours from the initiation of test. Then, the number of chromosomal aberration has been counted.

[4] = Rattus norvegicus, oral, dose 1 mg/kg, read-out: Lesion inhibition rate
[5] = Rattus norvegicus, oral, dose 3 mg/kg, read-out: Lesion inhibition rate
[6] = Rattus norvegicus, oral, dose 10 mg/kg, read-out: Lesion inhibition rate
[7] = Rattus norvegicus, dose 1 mg/kg, read-out: Lesion inhibition rate
[8] = Rattus norvegicus, dose 3 mg/kg, read-out: Lesion inhibition rate
[9] = Rattus norvegicus, dose 10 mg/kg, read-out: Lesion inhibition rate

Results (chromosomal aberration) ([3]; +S9, dose 2.5 μg/ml): negative
Results (chromosomal aberration) ([3]; +S9, dose 5 μg/ml): negative
Results (chromosomal aberration) ([3]; +S9, dose 10 μg/ml): negative
induction of chromosomal aberration [3]: do not induce the chromosomal aberration
Results (chromosomal aberration) ([3]; −S9, dose 0.625 μg/ml): negative
Results (chromosomal aberration) ([3]; −S9, dose 1.25 μg/ml): negative
Results (chromosomal aberration) ([3]; −S9, dose 2.5 μg/ml): negative
SMILES: C=C1C(=O)O[C@@H]2[C@@H]3[C@@H](CC[C@@]3(C)O)[C@](C)(OC)CC[C@@H]12 [CD-103]
inhibition at 30 mg/kg ([1]; Rattus norvegicus, oral, 30 mg/kg administration group, read-out: lesion inhibition rate): 99.5%
inhibition at 1 mg/kg [1, 4]: 56.9%
inhibition at 3 mg/kg [1, 5]: 66.9%
inhibition at 10 mg/kg [1, 6]: 99.5%
ED50 ([1]; Rattus norvegicus, oral): 2.55 mg/kg
Gastric lesion area ([1]; oral, dose 1 mg/kg): 80.8 ± 19.4* mm^2
Gastric lesion area ([1]; oral, dose 3 mg/kg): 62.1 ± 32.2* mm^2
Gastric lesion area ([1]; oral, dose 10 mg/kg): 1.0 ± 0.4* mm^2
inhibition at 1 mg/kg [2, 7]: 37.9%
inhibition at 3 mg/kg [2, 8]: 57.3%
inhibition at 10 mg/kg [2, 9]: 74%
ED50 ([2]; Rattus norvegicus): 2.06 mg/kg
Gastric lesion area ([2]; dose 1 mg/kg): 37.2 ± 7.0 mm^2
Gastric lesion area ([2]; dose 3 mg/kg): 25.6 ± 4.7* mm^2
Gastric lesion area ([2]; dose 10 mg/kg): 15.6 ± 3.1* mm^2

Result (chromosomal aberration test) ([3]; Table 5, + S9): positive positive
Result (chromosomal aberration test) ([3]; Table 5, − S9): positive positive
SMILES: C=C1C(=O)O[C@@H]2/C=C(\C)CC/C=C(\C)C[C@@H](OC(C)=O)C12 (stereo partly drawn) [reference compound]

SMILES: CO[C@]1(C)CC[C@H]2C(CN(C)CCO)C(=O)O[C@@H]2[C@@H]2[C@H]1CC[C@@]2(C)O (stereo partly drawn)
Lesion inhibition rate [1]: no effect

Results (chromosomal aberration) ([3]; +S9, dose 10 μg/ml): negative
Results (chromosomal aberration) ([3]; +S9, dose 20 μg/ml): negative
Results (chromosomal aberration) ([3]; +S9, dose 40 μg/ml): negative
Results (chromosomal aberration) ([3]; −S9, dose 2.5 μg/ml): negative
Results (chromosomal aberration) ([3]; −S9, dose 5 μg/ml): negative
Results (chromosomal aberration) ([3]; −S9, dose 10 μg/ml): negative
SMILES: C=C1C(=O)O[C@@H]2[C@@H](O)[C@]3(C)CC[C@H]3[C@](C)(OC)CC[C@@H]12 [CD-101]
inhibition at 1 mg/kg [1, 4]: 42.3%
inhibition at 3 mg/kg [1, 5]: 74.7%
inhibition at 10 mg/kg [1, 6]: 91.8%
ED50 ([1]; Rattus norvegicus, oral): 1.24 ± 0.1 mg/kg
Gastric lesion area ([1]; oral, dose 1 mg/kg): 135.1 ± 43.1 mm^2
Gastric lesion area ([1]; oral, dose 3 mg/kg): 59.3 ± 23.5* mm^2
Gastric lesion area ([1]; oral, dose 10 mg/kg): 19.2 ± 11.7* mm^2
inhibition at 1 mg/kg [2, 7]: 26.9%
inhibition at 3 mg/kg [2, 8]: 56.6%
inhibition at 10 mg/kg [2, 9]: 73.1%
ED50 ([2]; Rattus norvegicus): 2.78 ± 0.1 mg/kg
Gastric lesion area ([2]; dose 1 mg/kg): 43.8 ± 7.7 mm^2
Gastric lesion area ([2]; dose 3 mg/kg): 26.0 ± 4.7* mm^2
Gastric lesion area ([2]; dose 10 mg/kg): 16.1 ± 4.8* mm^2
induction of chromosomal aberration [3]: neither cytotoxicity nor chromosomal aberration; also recorded: do not induce the chromosomal aberration

SMILES: CC(C)=C1C(=O)COC1=O
Lesion inhibition rate [1]: no effect

Result (chromosomal aberration test) ([3]; Table 5, + S9): positive positive
Result (chromosomal aberration test) ([3]; Table 5, − S9): positive positive
SMILES: CC(=O)O[C@@H]1/C=C(\C)CCC/C(C)=C/[C@H]2OC(=O)[C@H](CN(C)C)C12 (stereo partly drawn) [reference compound]

SMILES: CN(C)c1ccc(/C=C2\CCOC2=O)cc1
Lesion inhibition rate [1]: no effect

Results (chromosomal aberration) ([3]; +S9, dose 5 μg/ml): negative
Results (chromosomal aberration) ([3]; +S9, dose 10 μg/ml): negative
Results (chromosomal aberration) ([3]; +S9, dose 20 μg/ml): negative
induction of chromosomal aberration [3]: do not induce the chromosomal aberration
Results (chromosomal aberration) ([3]; −S9, dose 1.25 μg/ml): negative
Results (chromosomal aberration) ([3]; −S9, dose 2.5 μg/ml): negative
Results (chromosomal aberration) ([3]; −S9, dose 5 μg/ml): negative
SMILES: C=C1CC[C@H]2C(=C)C(=O)O[C@@H]2C2[C@H]1CC[C@@]2(C)O (stereo partly drawn) [CD-102]
inhibition at 1 mg/kg [1, 4]: 43%
inhibition at 3 mg/kg [1, 5]: 70.4%
inhibition at 10 mg/kg [1, 6]: 94.9%
ED50 ([1]; Rattus norvegicus, oral): 1.31 mg/kg
Gastric lesion area ([1]; oral, dose 1 mg/kg): 133.5 ± 21.0* mm^2
Gastric lesion area ([1]; oral, dose 3 mg/kg): 69.4 ± 18.4* mm^2
Gastric lesion area ([1]; oral, dose 10 mg/kg): 11.9 ± 10.0* mm^2
inhibition at 1 mg/kg [2, 7]: 41.6%
inhibition at 3 mg/kg [2, 8]: 56.1%
inhibition at 10 mg/kg [2, 9]: 77.2%
ED50 ([2]; Rattus norvegicus): 1.82 mg/kg
Gastric lesion area ([2]; dose 1 mg/kg): 35.0 ± 5.2 mm^2
Gastric lesion area ([2]; dose 3 mg/kg): 26.3 ± 6.8* mm^2
Gastric lesion area ([2]; dose 10 mg/kg): 13.6 ± 2.9* mm^2

SMILES: O=C(NC(Cc1cc(=O)[nH]c2ccccc12)C(=O)O)c1ccc(Cl)cc1 (stereo not drawn) [Rebamipide, reference compound]
inhibition at 50 mg/kg ([1]; Rattus norvegicus, oral, dose 50 mg/kg, read-out: Lesion inhibition rate): 30%
Gastric lesion area ([1]; oral, dose 50 mg/kg): 163.9 ± 15.6 mm^2
inhibition at 50 mg/kg ([2]; Rattus norvegicus, dose 50 mg/kg, read-out: Lesion inhibition rate): 49.6%
Gastric lesion area ([2]; dose 50 mg/kg): 30.2 ± 6.4* mm^2

SMILES: CO[C@@]12[C@H](COC(N)=O)C3=C(C(=O)C(C)=C(N)C3=O)N1C[C@@H]1N[C@@H]12 [Mitomycin C, reference compound]
Results (chromosomal aberration) ([3]; −S9, dose 0.5 μg/ml): positive

SMILES: C=C1CC[C@@H]2[C@](C)(CO)[C@H](O)CC[C@@]2(C)[C@@H]1C/C=C1/C(=O)OC[C@H]1O
Lesion inhibition rate [1]: no effect

Result (chromosomal aberration test) ([3]; Table 5, + S9): positive positive
Result (chromosomal aberration test) ([3]; Table 5, − S9): positive positive
SMILES: C=C1C(=O)O[C@@H]2/C=C(\C)CCC(O)C(C)(O)C[C@@H](OC(C)=O)C12 (stereo partly drawn) [reference compound]

SMILES: CO[C@]1(C)CC[C@H]2C(CN(C)CCO)C(=O)O[C@@H]2[C@@H](O)[C@]2(C)CC[C@H]21 (stereo partly drawn)
Lesion inhibition rate [1]: no effect

SMILES: CC1=C2C3OC(=O)[C@@H](C)[C@@H]3CC[C@@]2(C)C=CC1=O (stereo partly drawn)
Lesion inhibition rate [1]: no effect
